This note sets out measurements from patent publication US20030055405A1, “Iontophoretic Drug Delivery Device and Reservoir and Method of Making Same” (Vyteris, Inc., priority 1993, published 2003).

This data set can be described thus: Shelf stability of the loaded reservoir electrode assembly in storage. The class given is physicochemical. The following applies: incorporated into the reservoir.

From the text: In the present example, an aqueous loading solution of 30% lidocaine HCI, 3% epinephrine, 30% glycerin, 0.05% sodium metabisulfite, 0.03% ethylene diamine tetraacetic acid, and 0.06% citric acid are used for the loading solution. The medicaments for delivery are lidocaine HCI and epinephrine, the glycerin serves as a humectant, the other minor components serve to enhance drug stability by chelating metal ions and serving as antioxidants. In order to load this solution onto the reservoir with electrode 112, laminate release liner 132 is removed from side 118 of reservoir 114 and a three-hundred microliter aliquot of this loading solution is applied to exposed surface 118, which is then covered with a final cover that remains in place until the reservoir is applied to a patient to protect the reservoir.

Regarding `CNC[C@H](O)c1ccc(O)c(O)c1` [epinephrine, Epinephrine Bitartrate], the “shelf stability of labile medicament” value is “satisfactory shelf stability”.
